# Measurements reported in patent US20070155827A1, “USE OF BENZO-FUSED HETEROCYCLE SULFAMIDE DERIVATIVES FOR THE TREATMENT OF DEPRESSION” (priority 2005, published 2007).
# Entries after “also recorded” stand apart in the source; their conditions may differ.
# System: submissive rats
# Experiment: Dominant-Submissive Relations (DSR) assay: Reduction of Submissive Behavior Model (RSBM) of depression
# Format: in vivo, Male Sprague Dawley rats
# Procedure: The DSR assay is divided into two models: Reduction of Dominant Behavior Model (RDBM) of mania and Reduction of Submissive Behavior Model (RSBM) of depression. The RDBM, wherein the dominant animals are treated with test compound, is predictive of the ability of the test compound to treat mania. The RSBM, wherein the submissive animals are treated with test compound, is predictive of the ability of the test compound to treat depression.
# Male Sprague Dawley rats (140 to 160 g) from Charles River Laboratories Wilmington, Mass. were used in this assay. Shipments of rats were received at two-week intervals. Each shipment went through five-day quarantine, one-week acclimation period, and one-week selection process, followed by five-weeks of drug or vehicle treatment to those pairs selected.
# Rats were housed four per cage. Access to food was restricted to one hour per day after testing on Monday through Thursday. After testing on Friday, rats had free access to food until being fasted again on Sunday. At no time were the rats deprived of water. The food deprivation periods used had little effect on weight gain as the average weight of rats was about 300 g at the end of the study. At the conclusion of experiment rats were sacrificed by decapitation, the trunk blood and brains were collected for in vitro experiments and drug concentration measurements.
# The basic testing apparatus consisted of two chambers connected with a tunnel only large enough to allow one rat to pass through at a time. On the floor, at the mid-point of the tunnel was a container of sweetened milk. This basic apparatus was replicated, so that a total of four pairs of rats can be video tracked simultaneously. The camera can distinguish rats marked by different colors. Thus, the rats' heads were colored for the purpose of video tracking, red in one cage and yellow in the other cage. Only one animal at a time can have comfortable access to the feeder, but both animals can drink milk during the five-minute daily session. During the five-minute daily sessions, time spent in the feeder zone by each rat was recorded by the video tracking software and saved into a text file.
# The test began with a random assignment of rats into pairs. Each member of a pair was placed in an opposite chamber of the testing apparatus. The time spent in the feeder zone by each animal was recorded. During the first week (five days) of testing the animals habituate to the new environment. Dominance was assigned to the animal with the highest score during the second week of testing if three criteria were achieved. First, there must have been a significant difference (two-tailed t-test, P<0.05) between the average daily drinking scores of both animals. Second, the dominant animal score must have been at least 25% greater than the submissive animal's score. Finally, there must have been no “reversals” during the pair selection week where the putative submissive rat out-scored its dominant partner on isolated occasions. Ideally there were minimal reversals during the acclimation week as well. About twenty-five to thirty-three percent of the initial animal pairs achieved these criteria and only these pairs were continued in the study.
# Significant differences between time spent on the feeder by dominant and submissive rats were determined by ANOVA using GraphPad Prism software (GraphPad Software, Inc. San Diego, Calif.) followed by a two-tailed t-test (P<0.05). Comparisons were made between treatment groups using normalized dominance level values in paired animals. The dominance level is a value that measures social relation between paired subjects. Dominance level (DL)=FTD−FTS where FTD is the feeder time of dominant rats and FTS is the feeder time of submissive rats. The normalization was conducted according to the formula: Dominance Level (week n in %)=(Dominance Level (week n))/(Dominance Level (week 2) […]
structure (smiles),measurement,setting,value
"NS(=O)(=O)NC[C@H]1COc2cc(Cl)ccc2O1 [Compound #8, (2S)-(−)-N-(6-Chloro-2,3-dihydro-benzo[1,4]dioxin-2-ylmethyl)-sulfamide]",Dominance Level (DL) values vs vehicle control,2.5 mg/kg p.o.,did not significantly differ from control
same,consistent loss of significance between dominant and submissive rats feeder time,2.5 mg/kg p.o.,no consistent loss of significance
same,Dominance Level (DL) values vs vehicle control,12.0 mg/kg p.o.,"significantly different from vehicle treated controls after the second, fourth and fifth week of treatment"
same,Dominance Level (DL) values vs vehicle control,60 mg/kg p.o.,significant difference in DL values relative to vehicle starting at the first week and continuing through the treatment duration of 5 weeks
same,difference in DL values with fluoxetine treated group,60.0 mg/kg p.o. vs fluoxetine 10 mg/kg,statistically significant at p<0.001 after first week and p<0.05 after second week of treatment
same,Dominance Level (DL) values vs vehicle control,120 mg/kg p.o.,"significantly different from the control group after first week, however, this significance dissipated after the second week of treatment"
same,consistent loss of significance between dominant and submissive rats feeder time,120.0 mg/kg p.o.,no consistent loss of significance
same,loss of significant difference between dominant and submissive rats,"Compound #8 p.o., all doses used (2.5, 12, 60, 120 mg/kg)",lost after the first week of treatment
same,increased submissiveness during first week of treatment (effect seen with fluoxetine),"Compound #8 treated groups, p.o.",did not show this effect
same,ED50,"Rattus norvegicus, po, RSBM, calculated",6.6 ± 0.8 mg/kg
same,reduction of submissive behavior,"p.o. once a day for 5 weeks to submissive rats, 2.5-120 mg/kg",reduce submissive behavior in a dose-dependent manner; also recorded: reduced submissive behavior
